Like-named read-outs stand apart in the source and are kept apart here.
How the values were obtained:
SETD2(1434-1711) = molecular target: T1, SETD2(1434-1711) (Homo sapiens, UniProt Q9BYW2); experiment: SETD2 (1434-1711) assay; assay type: biochemical; settings: read-out: SETD2 (1434-1711)
T1 construct: SETD2 (1434-1711) Assay; catalogue N/A
T1 sequence (Q9BYW2 1434-1711): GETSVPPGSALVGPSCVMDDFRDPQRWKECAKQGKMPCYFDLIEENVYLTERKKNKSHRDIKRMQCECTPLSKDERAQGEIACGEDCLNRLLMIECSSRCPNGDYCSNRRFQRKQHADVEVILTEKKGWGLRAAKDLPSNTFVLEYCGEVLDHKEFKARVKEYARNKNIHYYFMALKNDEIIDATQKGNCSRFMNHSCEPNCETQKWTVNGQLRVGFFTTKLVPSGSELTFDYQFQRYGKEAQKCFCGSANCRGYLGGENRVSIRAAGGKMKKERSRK

H3K36me3 in A549 cells = experiment: In-Cell Western (ICW) assay of SETD2 inhibitors (A549 assay); assay type: cell-based, human; settings: A549 cells, read-out: SETD2 A549
In short: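 H3K36me3 In-Cell Western: cells exposed to compound for 3 days at 4,000 cells/well, 37° C. DRAQ5 (1:1000) marked cell number, with 700/800-channel Licor read-out.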

SMILES | IC50 (SETD2(1434-1711)) [nM] | IC50 (H3K36me3 in A549 cells) [nM] | IC50 (H3K36me3 in A549 cells; Homo sapiens) [nM]
Cc1ccc(F)c2cc(C(=O)Nc3cccc(N4CCC5(CC4)CN(CC(F)(F)F)C5)c3)[nH]c12 [compound 110] | 100 | 200 | –
Cc1ccc(F)c2cc(C(=O)Nc3cccc(N4CC[C@H](N(C)C)[C@H](C)C4)c3)[nH]c12 [compound 111] | 8 | 200 | –
COC(=O)N1CCC2(CC1)CN(c1cccc(NC(=O)c3cc4c(F)ccc(C)c4[nH]3)c1)C2 [compound 112] | 30 | 200 | –
Cc1ccc(F)c2cc(C(=O)Nc3cc(F)cc(C4CCN5C(=O)CC[C@@H]5C4)c3)[nH]c12 (stereo partly drawn) [compound 114] | 60 | – | 200
Cc1ccc(F)c2cc(C(=O)Nc3cccc(-c4ccncc4)c3)[nH]c12 [compound 116] | 40 | – | 200
Cc1ccc(F)c2cc(C(=O)Nc3cccc(N4CCC(CN(C)C)CC4)c3)[nH]c12 [compound 117] | 20 | 200 | –
Cc1ccc(F)c2cc(C(=O)Nc3cccc(N4CCCC4=O)c3)[nH]c12 [compound 118] | 50 | – | 200
Cc1ccc(F)c2cc(C(=O)Nc3cccc(-c4nnc(C5CC5)o4)c3)[nH]c12 [compound 119] | 30 | 200 | –
Cc1ccc(F)c2cc(C(=O)Nc3cc(Cl)cc(N4CCC(N(C)C)C4)c3)[nH]c12 (stereo not drawn) [compound 120] | 6 | – | 300
COC(=O)N1CCN(c2cccc(NC(=O)c3cc4c(F)ccc(C)c4[nH]3)c2)CC1 [compound 121] | 50 | 300 | –
Cc1ccc(F)c2cc(C(=O)Nc3cc(F)cc(N4C[C@H]5CCN(C)[C@H]5C4)c3)[nH]c12 [compound 122] | 10 | – | 300
CC(=O)N1CCCC(c2cccc(NC(=O)c3cc4c(F)ccc(C)c4[nH]3)c2)C1 (stereo not drawn) [compound 123] | 50 | – | 300
Cc1ccc(F)c2cc(C(=O)Nc3cccc(N4CC5CCCNC5C4)c3)[nH]c12 (stereo not drawn) [compound 124] | 7 | – | 300
Cc1ccc(F)c2cc(C(=O)Nc3cccc(N4CCCS4(=O)=O)c3)[nH]c12 [compound 125] | 80 | – | 300
Cc1ccc(F)c2cc(C(=O)Nc3cccc(N4CCC(O)CC4)c3)[nH]c12 [compound 126] | 50 | – | 300
COC(=O)N1CCC2(CCN(c3cccc(NC(=O)c4cc5c(F)ccc(C)c5[nH]4)c3)CC2)C1 [compound 127] | 40 | – | 300

SMILES | IC50 (SETD2(1434-1711)) [nM] | IC50 (H3K36me3 in A549 cells) [nM] | IC50 (H3K36me3 in A549 cells; Homo sapiens) [nM]
CNC1CCN(c2cccc(NC(=O)c3cc4c(F)ccc(C)c4[nH]3)c2)C1 (stereo not drawn) [compound 128] | 10 | – | 300
Cc1ccc(F)c2cc(C(=O)Nc3cccc(N4CCOC(C)C4)c3)[nH]c12 (stereo not drawn) [compound 129] | 60 | – | 300
Cc1ccc(F)c2cc(C(=O)Nc3cccc(N4CCC(N(C)CCF)C4)c3)[nH]c12 (stereo not drawn) [compound 130] | 40 | – | 300
Cc1ccc(F)c2cc(C(=O)N[C@H]3CCC[C@@H](c4cncnc4)C3)[nH]c12 [compound 131] | 100 | – | 300
Cc1ccc(F)c2cc(C(=O)Nc3cccc(-c4nnc(CN(C)C)s4)c3)[nH]c12 [compound 132] | 50 | – | 300
COCC1CN(c2cccc(NC(=O)c3cc4c(F)ccc(C)c4[nH]3)c2)CCO1 (stereo not drawn) [compound 133] | 100 | – | 300
Cc1ccc(F)c2cc(C(=O)Nc3cccc(N4CC5(CN(C)C5)C4)c3)[nH]c12 [compound 135] | 20 | – | 300
Cc1ccc(F)c2cc(C(=O)Nc3cccc(-c4ccc(CNS(C)(=O)=O)cc4)c3)[nH]c12 [compound 136] | 400 | – | 300
Cc1ccc(F)c2cc(C(=O)Nc3cccc(-c4cccnc4)c3)[nH]c12 [compound 137] | 50 | – | 300
Cc1ccc(F)c2cc(C(=O)Nc3cccc(N4CCN(C(=O)C5CCCN(C)C5)CC4)c3)[nH]c12 (stereo not drawn) [compound 138] | 10 | – | 300
CNC(=O)N1CCN(c2cccc(NC(=O)c3cc4c(F)ccc(C)c4[nH]3)c2)CC1 [compound 139] | 50 | – | 300
Cc1ccc(F)c2cc(C(=O)Nc3cc(F)cc(C4CCN(C(=O)CN(C)C)C4)c3)[nH]c12 (stereo not drawn) [compound 140] | 10 | – | 300
Cc1cccnc1C(Cc1cnn(CC2CC2)c1)NC(=O)c1cc2c(F)ccc(C)c2[nH]1 (stereo not drawn) [compound 141] | 40 | – | 300
Cc1ccc(F)c2cc(C(=O)Nc3cccc(N4CCC5(CCCN5CC(F)F)CC4)c3)[nH]c12 [compound 142] | 40 | – | 300
Cc1ccc(F)c2cc(C(=O)Nc3cccc(N4CCOC(C5CC5)C4)c3)[nH]c12 (stereo not drawn) [compound 143] | 60 | – | 300
CNC1CCN(c2cccc(NC(=O)c3cc4c(F)ccc(C)c4[nH]3)c2)CC1 [compound 144] | 20 | – | 300

Further lines, results first:

IC50 (SETD2(1434-1711)) [nM] | IC50 (H3K36me3 in A549 cells) [nM] | IC50 (H3K36me3 in A549 cells; Homo sapiens) [nM] | SMILES
30 | – | 300 | Cc1ccc(F)c2cc(C(=O)Nc3cc(Cl)cc(-c4cncnc4)c3)[nH]c12 [compound 145]
200 | – | 300 | Cc1ccc(F)c2cc(C(=O)Nc3cccc(N4CCN(C5CCOC5)CC4)c3)[nH]c12 (stereo not drawn) [compound 146]
30 | – | 300 | Cc1ccc(F)c2cc(C(=O)Nc3cccc(N4CCNC(=O)C4)c3)[nH]c12 [compound 147]
20 | – | 300 | Cc1ccc(F)c2cc(C(=O)Nc3cccc(N4CCC(N(C)CCO)C4)c3)[nH]c12 (stereo not drawn) [compound 148]
70 | – | 300 | Cc1ccc(F)c2cc(C(=O)Nc3cccc(N4CCN(C(=O)CCO)CC4)c3)[nH]c12 [compound 149]
20 | – | 300 | Cc1ccc(F)c2cc(C(=O)Nc3cccc(N4CCC(CCCN)CC4)c3)[nH]c12 [compound 150]
10 | – | 300 | Cc1ccc(F)c2cc(C(=O)Nc3cccc(N4CCC(N5CCN(C)CC5)CC4)c3)[nH]c12 [compound 152]
50 | – | 300 | Cc1ccc(F)c2cc(C(=O)Nc3cccc(N4CCC(N5CCC(F)(F)CC5)C4)c3)[nH]c12 (stereo not drawn) [compound 153]
30 | – | 300 | Cc1ccc(F)c2cc(C(=O)Nc3cccc(N4C[C@@H](O)[C@H](N(C)C)C4)c3)[nH]c12 [compound 154]
50 | – | 300 | COC1CN(C2CCN(c3cccc(NC(=O)c4cc5c(F)ccc(C)c5[nH]4)c3)CC2)C1 [compound 155]
30 | – | 300 | COCCN(C)C1CCN(c2cccc(NC(=O)c3cc4c(F)ccc(C)c4[nH]3)c2)C1 (stereo not drawn) [compound 156]
50 | – | 300 | Cc1ccc(F)c2cc(C(=O)Nc3cccc(N4CCC(Nc5cccnc5)CC4)c3)[nH]c12 [compound 157]
80 | – | 300 | Cc1ccc(F)c2cc(C(=O)Nc3cc(F)cc(N4CCC(C)(N5CCOCC5)C4)c3)[nH]c12 (stereo not drawn) [compound 159]
90 | – | 300 | Cc1ccc(F)c2cc(C(=O)Nc3cccc(C4CCN(C)C(=O)C4)c3)[nH]c12 (stereo not drawn) [compound 160]
90 | – | 300 | Cc1ccc(F)c2cc(C(=O)Nc3cccc(-n4cncn4)c3)[nH]c12 [compound 162]
30 | 300 | – | CC(=O)N1C2CCC1CN(c1cccc(NC(=O)c3cc4c(F)ccc(C)c4[nH]3)c1)C2 [compound 163]
100 | – | 300 | Cc1ccc(F)c2cc(C(=O)Nc3cccc(-c4cnn(CCN5CCOCC5)c4)c3)[nH]c12 [compound 164]
10 | – | 300 | Cc1ccc(F)c2cc(C(=O)Nc3cccc(N4CC5CN(C)CC5C4)c3)[nH]c12 (stereo not drawn) [compound 165]
70 | – | 300 | Cc1ccc(F)c2cc(C(=O)Nc3cccc([C@H]4CCN5C(=O)CC[C@@H]5C4)c3)[nH]c12 [compound 166]
50 | – | 300 | Cc1ccc(F)c2cc(C(=O)Nc3cccc(N4CCOC(CN(C)C)C4)c3)[nH]c12 (stereo not drawn) [compound 167]
20 | – | 300 | Cc1ccc(F)c2cc(C(=O)Nc3cccc(C4CCN(C)CC4)c3)[nH]c12 [compound 168]
50 | – | 300 | Cc1ccc(F)c2cc(C(=O)Nc3cccc(N4CCN(C(=O)CC#N)CC4)c3)[nH]c12 [compound 170]
100 | – | 300 | Cc1ccc(F)c2cc(C(=O)Nc3cccc(-c4nccn4C)c3)[nH]c12 [compound 171]
20 | 300 | – | Cc1ccc(F)c2cc(C(=O)Nc3cccc(N4CCC5C(CCN5C)C4)c3)[nH]c12 (stereo not drawn) [compound 172]
70 | – | 300 | COCC1(COC)CCN(c2cccc(NC(=O)c3cc4c(F)ccc(C)c4[nH]3)c2)CC1 [compound 173]
50 | – | 300 | Cc1ccc(F)c2cc(C(=O)Nc3cccc(N4CCC(N5CC(O)C5)C4)c3)[nH]c12 (stereo not drawn) [compound 174]
70 | – | 300 | Cc1cccnc1C(Cc1cnn(CC2CC2)c1)NC(=O)c1cc2cccc(C)c2[nH]1 (stereo not drawn) [compound 175]
100 | – | 300 | Cc1ccc(F)c2cc(C(=O)Nc3cccc(N4CCN(S(C)(=O)=O)CC4)c3)[nH]c12 [compound 176]
